Measured values as given in patent US9505745B2, “Enhancer of zeste homolog 2 inhibitors” (GlaxoSmithKline Intellectual Property (No.2) Limited, priority 2013, dated 2016).
Counter-ions that a name gives are not always drawn.

What was measured:
[1] = biological target: T1, EZH2 within the PRC2 complex (Homo sapiens (Human), UniProt Q15910); experiment: EZH2 methyltransferase SPA, mononucleosome substrate (Assay Protocol 1); assay type: biochemical; conditions: HeLa mononucleosome substrate, 3H-SAM, ≦10 nM approaches limit of detection
Description: Compounds contained herein were evaluated for their ability to inhibit the methyltransferase activity of EZH2 within the PRC2 complex. Human PRC2 complex was prepared by co-expressing each of the 5 member proteins (FLAG-EZH2, EED, SUZ12, RbAp48, AEBP2) in Sf9 cells followed by co-purification. Enzyme activity was measured in a scintillation proximity assay (SPA) where a tritiated methyl group is transferred from 3H-SAM to a lysine residue on Histone H3 of a mononucleosome, purified from HeLa cells. Mononucleosomes were captured on SPA beads and the resulting signal is read on a ViewLux plate reader.
(§1) Part A. Compound Preparation
• 1. Prepare 10 mM stock of compounds from solid in 100% DMSO. • 2. Set up an 11-point serial dilution (1:3 dilution, top concentration 10 mM) in 100% DMSO for each test compound in a 384 well plate leaving columns 6 and 18 for DMSO controls. • 3. Dispense 100 nL of compound from the dilution plate into reaction plates (Grenier Bio-One, 384-well, Cat#784075). Part B. Reagent Preparation Prepare the following solutions: • 1. 50 mM Tris-HCl, pH 8: Per 1 L of base buffer, combine 1 M Tris-HCl, pH 8 (50 mL) and distilled water (950 mL). • 2. 1× Assay Buffer: Per 10 mL of 1× Assay Buffer, combine 50 mM Tris-HCl, pH 8 (9958 uL), 1 M MgCl2 (20 uL), 2 M DTT (20 uL), and 10% Tween-20 (2 uL) to provide a final concentration of 50 mM Tris-HCl, pH 8, 2 mM MgCl2, 4 mM DTT, 0.002% Tween-20. • 3. 2× Enzyme Solution: Per 10 mL of 2× Enzyme Solution, combine 1× Assay Buffer and PRC2 complex to provide a final enzyme concentration of 10 nM. • 4. SPA Bead Suspension: Per 1 mL of SPA Bead Suspension, combine PS-PEI coated LEADSeeker beads (40 mg) and H2O (1 mL) to provide a final concentration of 40 mg/mL. • 5. 2× Substrate Solution: Per 10 mL of 2× Substrate Solution, combine 1× Assay Buffer (9728.55 uL), 800 ug/mL mononucleosomes (125 uL), 1 mM cold SAM (4 uL), and 7.02 uM 3H-SAM (142.45 uL; 0.55 mCi/mL) to provide a final concentration of 5 ug/mL nucleosomes, 0.2 uM cold SAM, and 0.05 uM 3H-SAM. • 6. 2.67× Quench/Bead Mixture: Per 10 mL of 2.67× Quench/Bead Mixture, combine ddH2O (9358 uL), 10 mM cold SAM (267 uL), 40 mg/mL Bead Suspension (375 uL) to provide a final concentration of 100 uM cold SAM and 0.5 mg/mL SPA beads. Part C. Assay Reaction in 384-well Grenier Bio-One Plates Compound Addition • 1. Dispense 100 nL/well of 100× Compound to test wells (as noted above). • 2. Dispense 100 nL/well of 100% DMSO to columns 6 & 18 for high and low controls, respectively. Assay • 1. Dispense 5 uL/well of 1× Assay Buffer to column 18 (low control reactions). • 2. Dispense 5 uL/well of 2× Enzyme Solution to columns 1-17, 19-24. • 3. Spin assay plates for ˜1 min at 500 rpm. • 4. Stack the assay plates, covering the top plate. • 5. Incubate the compound/DMSO with the enzyme for 30 min at room temperature. • 6. Dispense 5 uL/well of 2× Substrate Solution to columns 1-24. • 7. Spin assay plates for ˜1 min at 500 rpm. • 8. Stack the assay plates, covering the top plate. • 9. Incubate the assay plates at room temperature for 1 hour. Quench/Bead Addition • 1. Dispense 5 uL/well of the 3× Quench/Bead Mixture to columns 1-24. • 2. Seal the top of each assay plate with adhesive TopSeal. • 3. Spin assay plates for ˜1 min at 500 rpm. • 4. Equilibrate the plates for >20 min. Read plates • 1. Read the assay plates on the Viewlux Plate Reader utilizing the 613 nm emission filter with a 300 s read time.
Reagent addition can be done manually or with automated liquid handler. • The final DMSO concentration in this assay is 1%. • The positive control is in column 6; negative control is in column 18. • Final starting concentration of compounds is 100 µM. Results
(§2) Percent inhibition was calculated relative to the DMSO control for each compound concentration and the resulting values were fit using standard IC50 fitting parameters within the ABASE data fitting software package.

[2] = biological target: T1, EZH2 within the PRC2 complex; experiment: EZH2 methyltransferase SPA, biotinylated histone H3K27 peptide substrate (Assay Protocol 2); assay type: biochemical; conditions: 3H-SAM, ≦10 nM approaches limit of detection
Description: Compounds contained herein were evaluated for their ability to inhibit the methyltransferase activity of EZH2 within the PRC2 complex. Human PRC2 complex was prepared by co-expressing each of the 5 member proteins (FLAG-EZH2, EED, SUZ12, RbAp48, AEBP2) in Sf9 cells followed by co-purification. Enzyme activity was measured in a scintillation proximity assay (SPA) where a tritiated methyl group is transferred from 3H-SAM to a lysine residue on a biotinylated, unmethylated peptide substrate derived from histone H3. The peptides were captured on streptavidin-coated SPA beads and the resulting signal was read on a ViewLux plate reader.
as §1
• 4. Prepare 10 mM stock of compounds from solid in 100% DMSO. • 5. Set up an 11-point serial dilution (1:4 dilution, top concentration 10 mM) in 100% DMSO for each test compound in a 384 well plate leaving columns 6 and 18 for DMSO controls. • 6. Dispense 10 nL of compound from the dilution plate into reaction plates (Corning, 384-well polystyrene NBS, Cat#3673). Part B. Reagent Preparation Prepare the following solutions: • 7. 1× Base Buffer, 50 mM Tris-HCl, pH 8, 2 mM MgCl2: Per 1 L of base buffer, combine 1 M Tris-HCl, pH 8 (50 mL), 1 M MgCl2 (2 mL), and distilled water (948 mL). • 8. 1× Assay Buffer: Per 10 mL of 1× Assay Buffer, combine 1× Base Buffer (9.96 mL), 1 M DTT (40 uL), and 10% Tween-20 (1 uL) to provide a final concentration of 50 mM Tris-HCl, pH 8, 2 mM MgCl2, 4 mM DTT, 0.001% Tween-20. • 9. 2× Enzyme Solution: Per 10 mL of 2× Enzyme Solution, combine 1× Assay Buffer (9.99 mL) and 3.24 uM EZH2 5 member complex (6.17 uL) to provide a final enzyme concentration of 1 nM. • 10. SPA Bead Solution: Per 1 mL of SPA Bead Solution, combine Streptavidin coated SPA beads (PerkinElmer, Cat#RPNQ0261, 40 mg) and 1× Assay Buffer (1 mL) to provide a working concentration of 40 mg/mL. • 11. 2× Substrate Solution: Per 10 mL of 2× Substrate Solution, combine 40 mg/mL SPA Bead Solution (375 uL), 1 mM biotinylated histone H3K27 peptide (200 uL), 12.5 uM 3H-SAM (240 uL; 1 mCi/mL), 1 mM cold SAM (57 uL), and 1× Assay Buffer (9.13 mL) to provide a final concentration of 0.75 mg/mL SPA Bead Solution, 10 uM biotinylated histone H3K27 peptide, 0.15 uM 3H-SAM (˜12 uCi/mL 3H-SAM), and 2.85 uM cold SAM. • 12. 2.67× Quench Solution: Per 10 mL of 2.67× Quench Solution, combine 1× Assay Buffer (9.73 mL) and 10 mM cold SAM (267 uL) to provide a final concentration of 100 uM cold SAM. Part C. Assay Reaction in 384-well Grenier Bio-One Plates Compound Addition • 3. Stamp 10 nL/well of 1000× Compound to test wells (as noted above). • 4. Stamp 10 nL/well of 100% DMSO to columns 6 & 18 (high and low controls, respectively). Assay • 10. Dispense 5 uL/well of 1× Assay Buffer to column 18 (low control reactions). • 11. Dispense 5 uL/well of 2× Substrate Solution to columns 1-24 (note: substrate solution should be mixed to ensure homogeneous bead suspension before dispensing into matrix reservoir). • 12. Dispense 5 uL/well of 2× Enzyme Solution to columns 1-17, 19-24. • 13. Incubate the reaction for 60 min at room temperature. Quench • 5. Dispense 6 uL/well of the 2.67× Quench Solution to columns 1-24. • 6. Seal assay plates and spin for ˜1 min at 500 rpm. • 7. Dark adapt plates in the ViewLux instrument for 15-60 min. Read plates • 2. Read the assay plates on the Viewlux Plate Reader utilizing the 613 nm emission filter or clear filter (300 s exposure). Reagent addition can be done manually or with automated liquid handler. Results
as §2

T1 sequence (Q15910 whole entry): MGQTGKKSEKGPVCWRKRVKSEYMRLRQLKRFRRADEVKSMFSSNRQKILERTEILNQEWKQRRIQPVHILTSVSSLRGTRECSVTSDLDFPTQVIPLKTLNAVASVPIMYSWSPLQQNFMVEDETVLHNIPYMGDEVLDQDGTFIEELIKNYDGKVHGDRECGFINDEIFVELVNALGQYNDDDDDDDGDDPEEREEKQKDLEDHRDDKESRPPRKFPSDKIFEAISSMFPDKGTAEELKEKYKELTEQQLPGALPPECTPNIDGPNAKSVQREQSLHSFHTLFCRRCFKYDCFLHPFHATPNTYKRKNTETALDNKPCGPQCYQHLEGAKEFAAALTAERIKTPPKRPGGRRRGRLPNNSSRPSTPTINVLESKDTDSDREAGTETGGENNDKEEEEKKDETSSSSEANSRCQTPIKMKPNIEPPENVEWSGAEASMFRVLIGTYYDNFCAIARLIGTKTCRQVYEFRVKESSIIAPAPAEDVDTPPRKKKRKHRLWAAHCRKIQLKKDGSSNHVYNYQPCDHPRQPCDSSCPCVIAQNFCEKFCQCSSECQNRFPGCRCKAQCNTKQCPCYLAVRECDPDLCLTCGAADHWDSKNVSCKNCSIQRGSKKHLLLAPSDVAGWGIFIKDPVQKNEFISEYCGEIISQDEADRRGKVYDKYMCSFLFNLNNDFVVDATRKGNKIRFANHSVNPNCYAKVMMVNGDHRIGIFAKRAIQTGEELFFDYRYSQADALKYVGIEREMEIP
T1 sequence (O75530 whole entry partner): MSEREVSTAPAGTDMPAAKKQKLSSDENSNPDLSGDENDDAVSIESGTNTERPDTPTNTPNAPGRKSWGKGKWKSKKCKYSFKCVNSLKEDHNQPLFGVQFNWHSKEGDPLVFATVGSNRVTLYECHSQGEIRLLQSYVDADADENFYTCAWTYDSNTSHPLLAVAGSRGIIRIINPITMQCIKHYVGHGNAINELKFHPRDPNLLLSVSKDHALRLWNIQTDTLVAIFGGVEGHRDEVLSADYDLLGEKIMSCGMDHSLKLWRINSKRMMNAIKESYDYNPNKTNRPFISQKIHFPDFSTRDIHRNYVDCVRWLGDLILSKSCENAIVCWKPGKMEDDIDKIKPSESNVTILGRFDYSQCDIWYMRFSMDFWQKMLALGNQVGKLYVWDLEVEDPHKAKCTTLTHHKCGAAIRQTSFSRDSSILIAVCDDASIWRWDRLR
T1 sequence (Q15022 whole entry partner): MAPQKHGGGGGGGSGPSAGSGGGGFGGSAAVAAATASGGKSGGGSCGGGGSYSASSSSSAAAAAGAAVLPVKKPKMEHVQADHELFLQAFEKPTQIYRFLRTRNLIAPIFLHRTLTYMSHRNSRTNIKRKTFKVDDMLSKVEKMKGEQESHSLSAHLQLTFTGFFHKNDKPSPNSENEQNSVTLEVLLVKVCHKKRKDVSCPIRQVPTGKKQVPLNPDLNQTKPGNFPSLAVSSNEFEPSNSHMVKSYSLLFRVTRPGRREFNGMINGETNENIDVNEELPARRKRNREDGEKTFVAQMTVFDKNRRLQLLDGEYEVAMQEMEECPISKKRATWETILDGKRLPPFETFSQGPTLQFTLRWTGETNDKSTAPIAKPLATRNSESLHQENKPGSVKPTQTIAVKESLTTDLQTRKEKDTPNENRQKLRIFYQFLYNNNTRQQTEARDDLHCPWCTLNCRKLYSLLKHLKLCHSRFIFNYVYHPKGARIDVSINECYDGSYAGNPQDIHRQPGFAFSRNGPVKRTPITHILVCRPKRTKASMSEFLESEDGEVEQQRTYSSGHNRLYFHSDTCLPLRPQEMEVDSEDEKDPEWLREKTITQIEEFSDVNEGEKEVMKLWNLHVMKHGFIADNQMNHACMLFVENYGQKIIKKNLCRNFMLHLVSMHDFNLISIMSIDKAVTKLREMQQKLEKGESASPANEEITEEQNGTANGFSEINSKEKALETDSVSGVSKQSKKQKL
T1 sequence (Q09028 whole entry partner): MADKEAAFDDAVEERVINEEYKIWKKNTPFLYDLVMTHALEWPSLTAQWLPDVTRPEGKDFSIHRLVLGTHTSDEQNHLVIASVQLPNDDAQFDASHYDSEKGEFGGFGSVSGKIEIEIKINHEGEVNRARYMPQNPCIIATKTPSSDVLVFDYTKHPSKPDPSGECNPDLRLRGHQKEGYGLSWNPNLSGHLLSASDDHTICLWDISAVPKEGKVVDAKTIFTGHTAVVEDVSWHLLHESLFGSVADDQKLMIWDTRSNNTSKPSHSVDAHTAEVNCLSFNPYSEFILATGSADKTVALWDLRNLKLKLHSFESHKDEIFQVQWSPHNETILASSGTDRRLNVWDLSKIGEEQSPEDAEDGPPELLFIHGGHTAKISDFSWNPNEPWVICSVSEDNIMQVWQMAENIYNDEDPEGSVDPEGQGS
T1 sequence (Q6ZN18 whole entry partner): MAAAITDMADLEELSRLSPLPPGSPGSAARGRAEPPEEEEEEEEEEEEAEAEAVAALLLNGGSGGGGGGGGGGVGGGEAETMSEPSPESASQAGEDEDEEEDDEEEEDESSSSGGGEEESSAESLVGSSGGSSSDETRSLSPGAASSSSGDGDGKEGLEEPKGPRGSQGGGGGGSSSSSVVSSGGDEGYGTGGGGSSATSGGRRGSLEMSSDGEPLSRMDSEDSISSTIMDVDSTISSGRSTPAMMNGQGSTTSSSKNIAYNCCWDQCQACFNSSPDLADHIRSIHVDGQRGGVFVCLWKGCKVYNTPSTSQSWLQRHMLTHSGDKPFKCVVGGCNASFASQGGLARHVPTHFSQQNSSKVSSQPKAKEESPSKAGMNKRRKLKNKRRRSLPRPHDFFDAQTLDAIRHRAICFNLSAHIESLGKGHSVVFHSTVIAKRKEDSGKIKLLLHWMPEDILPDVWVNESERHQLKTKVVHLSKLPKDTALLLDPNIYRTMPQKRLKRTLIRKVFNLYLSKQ

**Q.** What does the source list for `Cc1cc(C)c(CNC(=O)c2scc(OC(C)C)c2C)c(=O)[nH]1` [Example 1, N-((4,6-dimethyl-2-oxo-1,2-dihydropyridin-3-yl)methyl)-4-isopropoxy-3-methylthiophene-2-carboxamide]?
**A.** IC50 [1]: 3160 nM; IC50 [2]: 25100 nM

**Q.** Which results are given for `CCN(c1csc(C(=O)NCc2c(C)cc(C)[nH]c2=O)c1C)C1CCOCC1` [Example 2, N-((4,6-Dimethyl-2-oxo-1,2-dihydropyridin-3-yl)methyl)-4-(ethyl(tetrahydro-2H-pyran-4-yl)amino)-3-methylthiophene-2-carboxamide]?
**A.** IC50 [1]: 63 nM; IC50 [2]: 200 nM

**Q.** With `CCN(c1c(Cl)sc(C(=O)NCc2c(C)cc(C)[nH]c2=O)c1C)C1CCOCC1` [Example 3, 5-Chloro-N-((4,6-dimethyl-2-oxo-1,2-dihydropyridin-3-yl)methyl)-4-(ethyl(tetrahydro-2H-pyran-4-yl)amino)-3-methylthiophene-2-carboxamide] as the compound, how does the IC50 [1] read?
**A.** Its IC50 is 100 nM.

**Q.** What about the IC50 [2] of the same compound?
**A.** Its IC50 is 200 nM.

**Q.** How did the IC50 [1] turn out when `CCN(c1csc(C(=O)NCc2c(C)cc(C)[nH]c2=O)c1C)[C@H]1CC[C@H](N(C)C)CC1` [Example 4, N-((4,6-dimethyl-2-oxo-1,2-dihydropyridin-3-yl)methyl)-4-(((trans)-4-(dimethylamino)cyclohexyl)(ethyl)amino)-3-methylthiophene-2-carboxamide] was run?
**A.** The IC50 was 16 nM.

**Q.** And the IC50 [2]?
**A.** Its IC50 is 25 nM.

**Q.** What does the source list for `CCN(c1csc(C(=O)NCc2c(C)cc(C)[nH]c2=O)c1C)[C@H]1CC[C@@H](N(C)C)CC1` [Example 5, N-((4,6-dimethyl-2-oxo-1,2-dihydropyridin-3-yl)methyl)-4-(((cis)-4-(dimethylamino)cyclohexyl)(ethyl)amino)-3-methylthiophene-2-carboxamide]?
**A.** IC50 [1]: 32 nM; IC50 [2]: 50 nM

**Q.** With `CCN(c1scc(C(=O)NCc2c(C)cc(C)[nH]c2=O)c1C)C1CCOCC1` [Example 6, N-((4,6-dimethyl-2-oxo-1,2-dihydropyridin-3-yl)methyl)-5-(ethyl(tetrahydro-2H-pyran-4-yl)amino)-4-methylthiophene-3-carboxamide] as the compound, how does the IC50 [1] read?
**A.** The IC50 was 16 nM.

**Q.** And the IC50 [2]?
**A.** The IC50 was 16 nM.

**Q.** How did the IC50 [2] turn out when `C/C=C(/CCCN1CCC(N(C)C)CC1)c1scc(C(=O)NCc2c(C)cc(C)[nH]c2=O)c1C` [Example 74, (Z)—N-((4,6-Dimethyl-2-oxo-1,2-dihydropyridin-3-yl)methyl)-5-(6-(4-(dimethylamino)piperidin-1-yl)hex-2-en-3-yl)-4-methylthiophene-3-carboxamide formate] was run?
**A.** The IC50 was 200 nM.

**Q.** How did the IC50 [2] turn out when `CCN(c1sc(-c2ccoc2)c(C(=O)NCc2c(C)cc(C)[nH]c2=O)c1C)C1CCOCC1` [Example 75, N-((4,6-dimethyl-2-oxo-1,2-dihydropyridin-3-yl)methyl)-5-(ethyl(tetrahydro-2H-pyran-4-yl)amino)-2-(furan-3-yl)-4-methylthiophene-3-carboxamide] was run?
**A.** The IC50 was 25 nM.

**Q.** `CCN(c1sc(-c2ccco2)c(C(=O)NCc2c(C)cc(C)[nH]c2=O)c1C)C1CCOCC1` [Example 76, N-((4,6-dimethyl-2-oxo-1,2-dihydropyridin-3-yl)methyl)-5-(ethyl(tetrahydro-2H-pyran-4-yl)amino)-2-(furan-2-yl)-4-methylthiophene-3-carboxamide] was tested. Which IC50 [2] did it give?
**A.** The IC50 was 32 nM.

**Q.** `CCN(c1sc(-c2ccoc2)c(C(=O)NCc2c(C)cc(C)[nH]c2=O)c1C)[C@H]1CC[C@H](N(C)C)CC1` [Example 77, N-((4,6-dimethyl-2-oxo-1,2-dihydropyridin-3-yl)methyl)-5-(((trans)-4-(dimethylamino)cyclohexyl)(ethyl)amino)-2-(furan-3-yl)-4-methylthiophene-3-carboxamide] was tested. Which IC50 [2] did it give?
**A.** The IC50 was 32 nM.

**Q.** Which IC50 [2] does the source give for `CCN(c1sc(-c2cnn(C)c2)c(C(=O)NCc2c(C)cc(C)[nH]c2=O)c1C)C1CCOCC1` [Example 78, N-((4,6-dimethyl-2-oxo-1,2-dihydropyridin-3-yl)methyl)-5-(ethyl(tetrahydro-2H-pyran-4-yl)amino)-4-methyl-2-(1-methyl-1H-pyrazol-4-yl)thiophene-3-carboxamide] here?
**A.** The IC50 was 100 nM.
